From US20160101076A1, “Use of Sumoylation Inhibitors for Treating Cancer” (priority 2013, published 2016)

Experiments:
BT-549 cells = test: CD44 Western blot and CD44+/CD24-/low FACS in BT-549 cells; format: cell-based, human; conditions: for ability to repress CD44 expression with knockdown of TFAP2A: BT549 cells, TFAP2A siRNA, Western blot FIG. 6C; for CD44+/CD24-/low population by FACS analysis / CD44 expression by Western blot: BT-549 cells, FIG. 6A, 10 μM, 2-4 days
Method: (§1) The human breast cancer cell lines (MCF-7, SKBR-3, BT-20, BT-549, MCF-10A) were obtained from American Type Culture Collection. sKD-C cells were subcloned from parental MCF-7 cells with stable knockdown of TFAP2C as described (Cyr et al., 2014). ER<-positive tumors and the basal cancer tumor were obtained from surgical resection specimens. Cell suspensions were prepared with gentle collagenase/hyaluronidase (Stemcells) (Ponti et al., 2005). A new cell line was established from the basal tumor cells, called IOWA-1T (manuscript in preparation).
(§2) Western blots were performed as previously described (Cyr et al., 2014; Kulak et al., 2013). For immunoprecipitations anti-TFAP2A, anti-GFP antibody (Life Technologies) or IgG (#sc-2025, Santa Cruz Biotechnology) were cross-linked with Dynabeads protein A (Life Technologies). MCF7 protein was incubated with Dynabeads protein A-Abs complex, protein complexes were washed with DPBS (Gibco) with 0.01% Tween (Research Products International Corp.), and eluted with SDS loading buffer.
(§3) Cells were plated ([…]/10 cm2) and treated with 10 μM gingolic or anacardic acid (Sigma) for 2-4 days and collected for qPCR, Western blot and FACS analysis.
(§4) FACS analysis was performed as previously described (Roederer and Hardy, 2001).

MCF-10A cells = test: CD44 expression and stem cell markers in normal breast cell line MCF-10A; format: cell-based, human; conditions: MCF-10A normal breast cell line
Method: as §1, §2, §3, §4

[1] = system: pancreatic carcinoma Panc-1 cell line; test: CD44 Western blot in Panc-1 pancreatic carcinoma; format: cell-based; conditions: Panc-1, 96 h treatment; FIG. 18
Method: FIG. 18: Western blot, CD44 downregulation, Panc-1 pancreatic carcinoma was treated with ginkgolic and anacardic acids, 96 h.
(§5) Similar downregulation of stem cell marker CD44 was determined in pancreatic carcinoma Panc-1 cell line (FIG. 18) and undifferentiated thyroid cell line 8505c (FIG. 19) after 96 h treatment with SUMO inhibitors anacardic and ginkgolic acids. • Woodfield, G. W., Horan, A. D., Chen, Y. & Weigel, R. J. TFAP2C controls hormone response in breast cancer cells through multiple pathways of estrogen signaling. Cancer Res 67, 8439-8443 (2007). • Woodfield, G. W., Chen, Y., Bair, T. B., Domann, F. E. & Weigel, R. J. Identification of primary gene targets of TFAP2C in hormone responsive breast carcinoma cells. Genes Chromosomes Cancer 49, 948-962, doi:10.1002/gcc.20807 (2010). • Tan, S. K. et al. AP-2gamma regulates oestrogen receptor-mediated longrange chromatin interaction and gene transcription. Embo J 30, 2569-2581, doi:10.1038/emboj.2011.151 (2011). • Sorlie, T. et al. Gene expression patterns of breast carcinomas distinguish tumor subclasses with clinical implications. Proc Natl Acad Sci USA 98, 10869-10874. (2001). • Kao, J. et al. Molecular profiling of breast cancer cell lines defines relevant tumor models and provides a resource for cancer gene discovery. […]

[2] = system: undifferentiated thyroid cell line 8505c; test: CD44 Western blot in 8505c thyroid carcinoma; format: cell-based; conditions: 96 h treatment, FIG. 19
Method: FIG. 19: Western blot, CD44 downregulation, 8505c thyroid carcinoma was treated with ginkgolic and anacardic acids, 96 h.
as §5

SMILES | ability to repress CD44 expression with knockdown of TFAP2A (BT-549 cells) | CD44+/CD24-/low population by FACS analysis (BT-549 cells) | CD44 expression by Western blot (BT-549 cells) | CD44 expression (MCF-10A cells) | percentage of cells expressing stem cell markers (MCF-10A cells) | stem cell marker CD44 (Western blot) [1] | stem cell marker CD44 (Western blot) [2]
CCCCCC/C=C\CCCCCCCc1cccc(O)c1C(=O)O [GA, (Z)-6-(Pentadec-8-enyl)-2-hydroxybenzoic acid] | completely eliminated | significantly reduced | inhibited | no effect | no effect | downregulation | downregulation
CCCCCCCCCCCCCCCc1cccc(O)c1C(=O)O [AA, Anacardic acid (C15:0)] | completely eliminated | significantly reduced | inhibited | no effect | no effect | downregulation | downregulation
